“Also recorded” adds a separate entry of the source.
Assays:
[1] = test system: Japanese patients with castration-resistant prostate cancer; test: Phase 1 safety assessment: adverse events (NCI-CTCAE v3.0), DLT, laboratory profiles, ECG; assay type: in vivo, human
Text: The propriety of transitions to subsequent dose cohort was judged on the basis of the number of patients with dose-limiting toxicities (DLTs) during Cycle 1 (28 days). […] Patients could continue study treatment until criteria for treatment discontinuation were met. The use of aldosterone antagonists (e.g., eplerenone) was allowed for patients with clinical symptoms of mineralocorticoid excess such as hypertension, hypokalemia, and edema.
Safety assessments included the evaluation of adverse events (AEs), laboratory profiles, physical examination, and vital signs throughout the study. AEs were graded using National Cancer Institute Common Terminology Criteria for Adverse Events (NCI-CTCAE) v3.0. Analysis of serum amylase and lipase was added to the clinical laboratory tests before enrollment of patients into the 400-mg BID plus prednisolone cohort because pancreatitis was reported during the study. A safety follow-up was performed for 28 days after the final dose of the study treatment. During Cycle 1 (28 days), DLT was also evaluated. DLTs were defined as any drug-related AE of ≥ Grade 3 and pre-specified cardiac-related AEs of lower grade. Hypertension, hypokalemia, and edema attributed to increased ACTH secretion maintained at Grade 2 or lower through the use of eplerenone were not considered DLTs.

[2] = clinical; conditions: human, in vivo; for AUC(0-t): AUC0–8h; for Cmax: C max
[3] = male, human, in vivo, 24 h
[4] = test system: serum testosterone; test: Pharmacodynamics: serum testosterone; assay type: in vivo, human; conditions: for Serum testosterone: mean (SD), LLOQ 0.05 or 0.03
Method: (§1) Endocrine parameters such as serum testosterone and dehydroepiandrosterone sulfate (DHEA-S) were measured for PD analysis. The blood sample were collected on Days 1, 8, 15, and 22 of Cycle 1 and then on Day 1 of each subsequent 28-day cycle. Assay procedure for testosterone was improved during the study, and the lower limit of quantification (LLOQ) for testosterone changed from 0.05 to 0.03 ng/mL.

[5] = test system: dehydroepiandrosterone sulfate (DHEA-S); test: Pharmacodynamics: serum DHEA-S; assay type: in vivo, human; conditions: for Serum DHEA-S: mean (SD), LLOQ 2.0
Method: as §1

[6] = test system: prostate-specific antigen (PSA); test: Serum PSA levels and PSA response (PCWG2 criteria); assay type: in vivo, human; conditions: during the study; 15 patients
Method: (§2) The efficacy endpoints were serum PSA levels, PSA response rates based on the Prostate Cancer Clinical Trials Working Group (PCWG) 2 criteria, and objective disease response rates based on the General Rule for Clinical and Pathological Studies on Prostate Cancer and modified RECIST version 1.0. PSA levels were measured on Days 1 and 15 in Cycle 1, on Day 1 of Cycle 2 and each subsequent cycle. Tumor assessments were performed on Day 29, 85, and every 12-week cycle for subsequent cycles.

[7] = test system: castration-resistant prostate cancer; test: Objective disease response (General Rule for Prostate Cancer; modified RECIST 1.0); assay type: in vivo, human
Method: as §2

[8] = test system: serum androgen levels; conditions: monkeys; cited from earlier work
[9] = General Rule for Clinical and Pathological Studies on Prostate Cancer, 15 patients

Compound: CNC(=O)c1ccc2cc([C@@]3(O)CCn4cncc43)ccc2c1 [Orteronel]
- Deaths ([1]; during the study, 15 patients): No deaths were reported
- Number of SAEs considered related to the study treatment ([1]; in vivo): nine
- Patients with acute pancreatitis (Grades 2 and 3) or pancreatitis (Grade 1) ([1]; in vivo): three
- Patients with pancreatic-related AEs ([1]; in vivo): ten
- Serious AEs (SAEs) in Cycle 1 ([1]; in vivo): Neither DLTs nor serious AEs (SAEs) were reported
- TEAEs associated with adrenal insufficiency ([1]; in vivo): No TEAE associated with adrenal insufficiency was reported
- Treatment-related SAEs in the 200- and 300-mg BID cohorts ([1]; in vivo): No treatment-related SAE was observed
- 12-lead ECG and echocardiography findings ([1]; male, human, in vivo): No clinically significant abnormal 12-lead ECG and echocardiography findings were observed
- Abnormalities in hematologic test or urinalysis ([1]; male, human, in vivo): No Grade 3 or higher abnormalities were observed
- Incidence of constipation (AE) ([1]; male, human, in vivo): 33%
- Incidence of hyperamylasemia (AE) ([1]; male, human, in vivo): 40%
- Incidence of hyperlipasemia (AE) ([1]; male, human, in vivo): 47%
- Mineralocorticoid-related TEAE: hypertension ([1]; male, human, in vivo): 4 n
- Mineralocorticoid-related TEAE: hypokalemia ([1]; male, human, in vivo): 3 n
- Patients who experienced SAEs ([1]; male, human, in vivo): 60%
- Patients with at least 1 TEAE ([1]; male, human, in vivo): 100%
- Patients with at least 1 treatment-related AE ([1]; male, human, in vivo): 93%
- TEAE subject incidence: Abdominal pain upper ([1]; male, human, in vivo): 2 (13) n (%)
- TEAE subject incidence: Blood creatine phosphokinase increased ([1]; male, human, in vivo): 2 (13) n (%)
- TEAE subject incidence: Constipation ([1]; male, human, in vivo): 5 (33) n (%)
- TEAE subject incidence: Contusion ([1]; male, human, in vivo): 2 (13) n (%)
- TEAE subject incidence: Dysgeusia ([1]; male, human, in vivo): 4 (27) n (%)
- TEAE subject incidence: Fall ([1]; male, human, in vivo): 2 (13) n (%)
- TEAE subject incidence: Hepatic function abnormal ([1]; male, human, in vivo): 4 (27) n (%)
- TEAE subject incidence: Insomnia ([1]; male, human, in vivo): 2 (13) n (%)
- TEAE subject incidence: Malaise ([1]; male, human, in vivo): 4 (27) n (%)
- TEAE subject incidence: Nasopharyngitis ([1]; male, human, in vivo): 3 (20) n (%)
- TEAE subject incidence: Nausea ([1]; male, human, in vivo): 3 (20) n (%)
- TEAE subject incidence: Rash ([1]; male, human, in vivo): 3 (20) n (%)
- TEAE subject incidence: Vomiting ([1]; male, human, in vivo): 2 (13) n (%)
- Total number of SAEs ([1]; male, human, in vivo): 14 SAEs
- AUC(0-t) ([2]; 300 mg): 14500 ng·h/mL
- AUC(0-t) ([2]; 400 mg): 28600 ng·h/mL
- Time to C max (T max), range over cohorts ([2]; male): 1 to 3 h
- Tmax ([2]; male, 200 mg): 1 h
- AUC(0-t) ([2]; male, 200 mg): 7640 ng·h/mL
- Cmax ([2]; male, 200 mg): 1580 ng/mL
- Tmax ([2]; male, 300 mg): 3 h
- Cmax ([2]; male, 300 mg): 3100 ng/mL
- Tmax ([2]; male, 400 mg): 2.97 h
- Cmax ([2]; male, 400 mg): 4700 ng/mL
- Fractional urinary excretion rate [3]: 36 to 47 % of the dose
- Serum testosterone ([4]; Cycle 1 Day 8, 200 mg BID (N = 3), screening 0.153 (0.0611)): 0.050 (0.0000) ng/mL
- Serum testosterone ([4]; Cycle 1 Day 8, 300 mg BID (N = 3), screening 0.123 (0.0702)): 0.030 (0.0000) ng/mL
- Serum testosterone ([4]; Cycle 1 Day 8, 300 mg BID + prednisolone (N = 3), screening 0.127 (0.0473)): 0.030 (0.0000) ng/mL
- Serum testosterone ([4]; Cycle 1 Day 8, 400 mg BID (N = 3), screening 0.057 (0.0115)): 0.050 (0.0000) ng/mL
- Serum testosterone ([4]; Cycle 1 Day 8, 400 mg BID + prednisolone (N = 3), screening 0.053 (0.0058)): 0.043 (0.0115) ng/mL
- Serum testosterone ([4]; Cycle 2 Day 1, 200 mg BID (N = 3), screening 0.153 (0.0611)): 0.050 (0.0000) ng/mL
- Serum testosterone ([4]; Cycle 2 Day 1, 300 mg BID (N = 3), screening 0.123 (0.0702)): 0.030 (0.0000) ng/mL
- Serum testosterone ([4]; Cycle 2 Day 1, 300 mg BID + prednisolone (N = 3), screening 0.127 (0.0473)): 0.030 (0.0000) ng/mL
- Serum testosterone ([4]; Cycle 2 Day 1, 400 mg BID (N = 3), screening 0.057 (0.0115)): 0.050 (0.0000) ng/mL
- Serum testosterone ([4]; Cycle 2 Day 1, 400 mg BID + prednisolone (N = 3), screening 0.053 (0.0058)): 0.037 (0.0115) ng/mL
- Suppression of serum testosterone ([4]; by 1 week after initiation (Day 8), across all cohorts): rapidly suppressed below the lower limit of quantification; also recorded: rapidly suppressed to the LLOQ or lower
- Serum DHEA-S ([5]; Cycle 1 Day 8, 200 mg BID (N = 3), screening 114.7 (8.96)): 25.0 (7.21) μg/dL
- Serum DHEA-S ([5]; Cycle 1 Day 8, 300 mg BID (N = 3), screening 146.7 (79.83)): 23.3 (14.57) μg/dL
- Serum DHEA-S ([5]; Cycle 1 Day 8, 300 mg BID + prednisolone (N = 3), screening 136.0 (52.68)): 6.3 (4.16) μg/dL
- Serum DHEA-S ([5]; Cycle 1 Day 8, 400 mg BID (N = 3), screening 60.3 (8.50)): 9.3 (0.58) μg/dL
- Serum DHEA-S ([5]; Cycle 1 Day 8, 400 mg BID + prednisolone (N = 3), screening 40.3 (7.57)): 2.3 (0.58) μg/dL
- Serum DHEA-S ([5]; Cycle 2 Day 1, 200 mg BID (N = 3), screening 114.7 (8.96)): 30.0 (9.64) μg/dL
- Serum DHEA-S ([5]; Cycle 2 Day 1, 300 mg BID (N = 3), screening 146.7 (79.83)): 24.3 (11.93) μg/dL
- Serum DHEA-S ([5]; Cycle 2 Day 1, 300 mg BID + prednisolone (N = 3), screening 136.0 (52.68)): 2.3 (0.58) μg/dL
- Serum DHEA-S ([5]; Cycle 2 Day 1, 400 mg BID (N = 3), screening 60.3 (8.50)): 19.3 (16.29) μg/dL
- Serum DHEA-S ([5]; Cycle 2 Day 1, 400 mg BID + prednisolone (N = 3), screening 40.3 (7.57)): 2.0 (0.00) μg/dL
- Suppression of serum DHEA-S ([5]; Day 8): suppressed
- Overall median maximum PSA reduction [6]: 88.48%
- Objective response rate (CR + PR) ([7]; General Rule for Clinical and Pathological Studies on Prostate Cancer, 5/15 patients): 33%
- Best response of complete response (CR) [7, 9]: no patient had a best response of complete response (CR)
- Patients with best response of partial response (PR) [7, 9]: five
- Best response by modified RECIST version 1.0 ([7]; only six patients had measurable disease): No patient had a best response of CR or PR
- Effect on serum androgen levels in vivo [8]: reduced serum androgen levels
